Assay results: patent US20260308158A1, “TARGETING RNAS ASSOCIATED WITH TAUOPATHIES WITH SMALL MOLECULES” (University of Florida Research Foundation, Incorporated, priority 2023, published 2026)

Key:
[1] = tested on: DDPAC I17T MAPT mini-gene (exon 10 splicing); test: 4R/3R MAPT mRNA by RT-qPCR, HeLa cells transfected with DDPAC I17T mini-gene; format: cell-based
Procedure: (§1) RNA Isolation and Real-Time Quantitative PCR (RT-qPCR). HeLa cells were treated as described in the Luciferase Reporter assay to Study Exon 10 Alternative Splicing. LAN5 cells were seeded in 12-well plates at 0.2×10^6 cells per well, treated with compound or ASO, and incubated for 48 h. Compound stocks prepared in DMSO and ASO stocks prepared in water were diluted in growth medium and added to cells. Total RNA was extracted from cells and analyzed via RT-qPCR to determine levels of 3R and 4R tau mRNA. In brief, the cells were washed with 1×DPBS and then lysed in the well using 300 μL of Lysis Buffer provided in a Quick-RNA MiniPrep kit (Zymo Research), which was used to extract total RNA per the manufacturer's protocol including the on-column DNase I digestion. The concentration of total RNA was measured by NanoDrop 2000 (Thermo Fisher Scientific). Only samples with OD260/OD280>1.8 were carried forward for analysis. Reverse transcription (RT) was carried out on 200 ng of total RNA using a qScript cDNA synthesis kit (QuantaBio) in a total volume of 10 μL according to the manufacturer's protocol. An Applied Biosystems QS5 384-well PCR system was used to complete qPCR reactions with Power SYBR Green Master Mix (Life Technologies), 600 nM each primer (Table S3), 20 ng of cDNA (1 μL of the RT reaction), in a total volume of 33 μL. Technical triplicates (10 μL each) were aliquoted into 384-well qPCR plates (Applied biosystems, 4483285). Subsequent qPCR analysis was performed using an Applied Biosystems QS5 384-well PCR system (software v.1.3.0). 4R/3R ratio were analyzed using ΔΔCt method using Equation 2: […]
where ΔCt 4R or ΔCt 3R is the difference between the Ct values for the 4R or 3R MAPT mRNA and a housekeeping gene (18S rRNA) in total RNA from cells.

[2] = tested on: MAPT exon 10 splicing in primary neurons from htau mice; test: 4R/3R MAPT mRNA by RT-qPCR in primary neurons from htau mice; format: cell-based, human MAPT in htau transgenic mouse neurons; settings: 48 h
Procedure: as §1
Isolation and Treatment of Primary Neurons from Humanized tau (hTau) Transgenic Mice. All animal studies were completed as approved by the Scripps Florida Institutional Animal Care and Use Committee. […]

WT I17T mutant RNA = test: Fluorescent binding affinity, WT I17T mutant RNA
Procedure: Fluorescent Binding Affinity Measurements. Binding assays were completed as previously described.^30 Briefly, the RNA of interest was folded in 1× Assay Buffer-1 (AB1: 8 mM Na2HPO4, pH 7.0, 185 mM NaCl, and 1 mM EDTA) by heating at 95° C. for 30 s followed by slowly cooling to room temperature. Bovine serum albumin (BSA) was then added to a final concentration of 40 μg/mL to afford 1× Assay Buffer-2 (AB2: 8 mM Na2HPO4, pH 7.0, 185 mM NaCl, 1 mM EDTA, and 40 μg/mL BSA). The RNA solution was serial diluted with 1×AB2. Then, compound of interest was added to the RNA solutions to a final concentration of 0.5 μM. […] Fluorescence intensity was measured using a Tecan Plate Reader (Gain: 100, Integration time: 40 μs). […] The change in fluorescence of the small molecule was calculated by its comparison to samples lacking RNA. Binding affinity was calculated using Equation 1, as previously described:^30
where I and I0 are the measured fluorescence intensity of the compound with or without RNA, respectively, Δε is the difference between the fluorescence intensity with the infinite concentration of RNA and the fluorescence intensity without RNA, [SM]0 and [RNA]0 are the concentrations of the small molecule (SM) and RNA, respectively, and Kd is the dissociation constant.

Q: What does the source list for `COc1cc(N)ncc1CCCN(C)CCCn1cnc2c3ccccc3n(C)c2c1=O` [Compound 2, 3-(3-((3-(6-amino-4-methoxypyridin-3-yl)propyl)(methyl)amino)propyl)-5-methyl-3,5-dihydro-4H-pyrimido[5,4-b]indol-4-one]?
A: PSI10 (PSI of MAPT exon 10) vs vehicle [1]: not WT I17T or DDPAC I17T mutant; change in 4R/3R ratio (not statistically significant) ([1]; 1 at 10 μM or 2 at 1.5 μM): < 16%; 4R/3R ratio and PSI10 [2]: dose dependent reduction; relative potency (4R/3R ratio and PSI10) [2]: more potent than 1; Kd (estimated; no saturable binding) (WT I17T mutant RNA): > 50 µM
